PubChem BioAssay AID248 (DTP/NCI, 2004)
“And” between values parts separate entries of the source, which are not always exact repeats. Identical values can stand only once. Toxic doses and inconclusive results are not listed. Cut-off read from the data, not from the text of the source: active = T/C of 150% or more; inactive = T/C below 125%.

System: L1210 leukemia ip in BDF1 mice, survival T/C
Test: NCI In Vivo Anticancer Drug Screen. Data for tumor model L1210 Leukemia (intraperitoneal) in B6D2F1 (BDF1) mice
Conditions: endpoint: mean survival time, higher = longer survival
Outline: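 Ratio derived from survival: compound-dosed mice over vehicle-dosed mice, all bearing a transplantable tumor.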

[1] = dose: 100.0 mg/kg/injection, schedule: Q01DX009 (ip), vehicle: Klucel (hydroxypropylcellulose) (HPC)
[2] = dose: 200.0 mg/kg/injection, schedule: Q01DX009 (ip), vehicle: Klucel (hydroxypropylcellulose) (HPC)
[3] = dose: 12.5 mg/kg/injection, schedule: Q04DX002 (ip), vehicle: saline
[4] = dose: 25.0 mg/kg/injection, schedule: Q04DX002 (ip), vehicle: saline
[5] = dose: 50.0 mg/kg/injection, schedule: Q04DX002 (ip), vehicle: saline
[6] = dose: 50.0 mg/kg/injection, schedule: Q04DX002 (ip), vehicle: Klucel (hydroxypropylcellulose) (HPC)
[7] = dose: 100.0 mg/kg/injection, schedule: Q04DX002 (ip), vehicle: Klucel (hydroxypropylcellulose) (HPC)
[8] = dose: 200.0 mg/kg/injection, schedule: Q04DX002 (ip), vehicle: Klucel (hydroxypropylcellulose) (HPC)
[9] = dose: 100.0 mg/kg/injection, schedule: Q01DX001 (ip), vehicle: carboxymethylcellulose (CMC)
[10] = dose: 400.0 mg/kg/injection, schedule: Q04DX002 (ip), vehicle: Klucel (hydroxypropylcellulose) (HPC)
[11] = dose: 100.0 mg/kg/injection, schedule: Q01DX009 (ip), vehicle: saline with Tween-80
[12] = dose: 100.0 mg/kg/injection, schedule: Q04DX003 (ip), vehicle: saline with Tween-80
[13] = dose: 200.0 mg/kg/injection, schedule: Q01DX009 (ip), vehicle: saline with Tween-80
[14] = dose: 200.0 mg/kg/injection, schedule: Q04DX003 (ip), vehicle: saline with Tween-80
[15] = dose: 100.0 mg/kg/injection, schedule: Q04DX003 (ip), vehicle: Klucel (hydroxypropylcellulose) (HPC)
[16] = dose: 200.0 mg/kg/injection, schedule: Q04DX003 (ip), vehicle: Klucel (hydroxypropylcellulose) (HPC)
[17] = dose: 400.0 mg/kg/injection, schedule: Q04DX003 (ip), vehicle: Klucel (hydroxypropylcellulose) (HPC)

Measured: T/C

COc1ccc([N+](=O)[O-])cc1NC(=O)N(C1CCCCC1)C1CCCCC1
inactive: dose: 50.0 mg/kg/injection, schedule: Q01DX009 (ip), vehicle: Klucel (hydroxypropylcellulose) (HPC) 96 % of control | [1] 93 % of control | [2] 96 % of control

CC(C)N(C(C)C)C(C)CCNc1c2ccccc2nc2cc(Cl)ccc12 (configuration not stated)
inactive: dose: 1.88 mg/kg/injection, schedule: Q01DX Z (ip), vehicle: methylcellulose (MC) 113 % of control | dose: 3.0 mg/kg/injection, schedule: Q01DX Z (ip), vehicle: methylcellulose (MC) 117 % of control | dose: 3.75 mg/kg/injection, schedule: Q01DX Z (ip), vehicle: methylcellulose (MC) 115 % of control | dose: 5.0 mg/kg/injection, schedule: Q01DX Z (ip), vehicle: methylcellulose (MC) 116 % of control | dose: 6.0 mg/kg/injection, schedule: Q04DX003 (ip), vehicle: saline 98 % of control | dose: 7.5 mg/kg/injection, schedule: Q01DX Z (ip), vehicle: methylcellulose (MC) 110 % of control | dose: 12.0 mg/kg/injection, schedule: Q04DX003 (ip), vehicle: saline 102 % of control | dose: 15.0 mg/kg/injection, schedule: Q01DX Z (ip), vehicle: methylcellulose (MC) 109 % of control | dose: 24.0 mg/kg/injection, schedule: Q04DX003 (ip), vehicle: saline 105 % of control

CCOC(=O)N1C2OC(C(COC(C)=O)=C2COC(C)=O)N1C(=O)OCC
inactive: [3] 99 % of control | [4] 99 % of control | [5] 99 % of control

O=C(c1cccc([N+](=O)[O-])c1)c1sc2ccccc2c1O
inactive: [6] 90 % of control | [7] 93 % of control | [8] 88 % of control

N#C/C(=C\c1cc(Cl)ccc1O)C1CCC([N+](=O)[O-])CC1 (configuration not stated)
inactive: dose: 100.0 mg/kg/injection, schedule: Q04DX002 (ip), vehicle: saline with Tween-80 98 % of control | dose: 200.0 mg/kg/injection, schedule: Q04DX002 (ip), vehicle: saline with Tween-80 113 % of control | dose: 400.0 mg/kg/injection, schedule: Q04DX002 (ip), vehicle: saline with Tween-80 106 % of control

CCOc1cc[n+]([O-])cc1C
inactive: dose: 50.0 mg/kg/injection, schedule: Q01DX001 (ip), vehicle: carboxymethylcellulose (CMC) 102 % of control | [9] 98 % of control

CC(O)C(N)C(=O)O (configuration not stated)
inactive: [3] 103 % of control and 97 % of control | dose: 18.75 mg/kg/injection, schedule: Q04DX003 (ip), vehicle: saline 101 % of control | [4] 107 % of control | dose: 37.5 mg/kg/injection, schedule: Q04DX003 (ip), vehicle: saline 98 % of control | [5] 107 % of control | dose: 75.0 mg/kg/injection, schedule: Q04DX003 (ip), vehicle: saline 108 % of control and 114 % of control | [9] 87 % of control | dose: 100.0 mg/kg/injection, schedule: Q04DX002 (ip), vehicle: saline 107 % of control | dose: 150.0 mg/kg/injection, schedule: Q04DX003 (ip), vehicle: saline 108 % of control | dose: 200.0 mg/kg/injection, schedule: Q01DX001 (ip), vehicle: carboxymethylcellulose (CMC) 91 % of control | [2] 91 % of control | dose: 200.0 mg/kg/injection, schedule: Q04DX002 (ip), vehicle: saline 93 % of control | dose: 300.0 mg/kg/injection, schedule: Q04DX003 (ip), vehicle: saline 94 % of control | dose: 400.0 mg/kg/injection, schedule: Q01DX001 (ip), vehicle: carboxymethylcellulose (CMC) 89 % of control | dose: 400.0 mg/kg/injection, schedule: Q04DX002 (ip), vehicle: saline 107 % of control

Cc1ccc(N=[N+]([O-])c2ccc(C)c(Br)c2)cc1Br
inactive: [7] 102 % of control | [8] 98 % of control | [10] 98 % of control

Cc1csc(/N=C/c2ccc([N+](=O)[O-])o2)n1
inactive: dose: 50.0 mg/kg/injection, schedule: Q01DX009 (ip), vehicle: saline with Tween-80 100 % of control | [11] 105 % of control | [12] 103 % of control | [13] 101 % of control | [14] 97 % of control

CC12CCC(O)CC1CCC1C2CCC2(C)C(c3ccc(=O)oc3)CC3OC312 (configuration not stated)
inactive: dose: 50.0 mg/kg/injection, schedule: Q01DX001 (sc), vehicle: steriod suspending solution 105 % of control | dose: 100.0 mg/kg/injection, schedule: Q01DX001 (sc), vehicle: steriod suspending solution 105 % of control | dose: 200.0 mg/kg/injection, schedule: Q01DX001 (sc), vehicle: steriod suspending solution 96 % of control | dose: 400.0 mg/kg/injection, schedule: Q01DX001 (sc), vehicle: steriod suspending solution 100 % of control

CC(C)C(=O)[O][Sn]([c]1ccccc1)([c]1ccccc1)[c]1ccccc1
inactive: dose: 12.5 mg/kg/injection, schedule: Q04DX002 (ip), vehicle: Klucel (hydroxypropylcellulose) (HPC) 97 % of control | dose: 25.0 mg/kg/injection, schedule: Q04DX002 (ip), vehicle: Klucel (hydroxypropylcellulose) (HPC) 93 % of control | [6] 93 % of control

CC(C)(O)c1ccccc1
inactive: dose: 100.0 mg/kg/injection, schedule: Q01DX001 (ip), vehicle: saline 105 % of control | [11] 88 % of control | [12] 93 % of control | dose: 200.0 mg/kg/injection, schedule: Q01DX001 (ip), vehicle: saline 100 % of control | [13] 90 % of control | [14] 89 % of control | dose: 400.0 mg/kg/injection, schedule: Q01DX001 (ip), vehicle: saline 103 % of control | dose: 400.0 mg/kg/injection, schedule: Q01DX009 (ip), vehicle: saline with Tween-80 92 % of control | dose: 400.0 mg/kg/injection, schedule: Q04DX003 (ip), vehicle: saline with Tween-80 91 % of control

O=C(CCN1CC1)Oc1ccc(Cl)cc1
inactive: dose: 100.0 mg/kg/injection, schedule: Q01DX001 (ip), vehicle: saline with Tween-80 97 % of control | dose: 200.0 mg/kg/injection, schedule: Q01DX001 (ip), vehicle: saline with Tween-80 95 % of control | dose: 400.0 mg/kg/injection, schedule: Q01DX001 (ip), vehicle: saline with Tween-80 95 % of control

CCC(CCl)NC(=O)Nc1cccc2c1CCCC2 (configuration not stated)
inactive: [15] 98 % of control | [16] 96 % of control | [17] 98 % of control

Cc1ncc(C(O)c2ccc(N(C)C)cc2)n1Cc1ccccc1 (configuration not stated)
inactive: dose: 100.0 mg/kg/injection, schedule: Q01DX001 (ip), vehicle: Klucel (hydroxypropylcellulose) (HPC) 95 % of control | [1] 100 % of control and 104 % of control | [7] 111 % of control | [15] 103 % of control | dose: 200.0 mg/kg/injection, schedule: Q01DX001 (ip), vehicle: Klucel (hydroxypropylcellulose) (HPC) 95 % of control | [2] 103 % of control and 115 % of control | [8] 94 % of control and 115 % of control | [16] 105 % of control | dose: 400.0 mg/kg/injection, schedule: Q01DX001 (ip), vehicle: Klucel (hydroxypropylcellulose) (HPC) 89 % of control | dose: 400.0 mg/kg/injection, schedule: Q01DX009 (ip), vehicle: Klucel (hydroxypropylcellulose) (HPC) 88 % of control | [10] 98 % of control and 99 % of control | [17] 103 % of control

CC(CNCCN)C[Si](C)(C)C (configuration not stated)
inactive: dose: 4.0 mg/kg/injection, schedule: Q01DX015 (ip), vehicle: saline 101 % of control | dose: 6.25 mg/kg/injection, schedule: Q04DX003 (ip), vehicle: saline sonified 101 % of control | dose: 8.0 mg/kg/injection, schedule: Q01DX015 (ip), vehicle: saline 96 % of control | dose: 12.5 mg/kg/injection, schedule: Q04DX003 (ip), vehicle: saline sonified 97 % of control | dose: 16.0 mg/kg/injection, schedule: Q01DX015 (ip), vehicle: saline 102 % of control | dose: 25.0 mg/kg/injection, schedule: Q04DX003 (ip), vehicle: saline sonified 97 % of control | dose: 32.0 mg/kg/injection, schedule: Q01DX015 (ip), vehicle: saline 96 % of control
